US12527838B2, “Combination therapies comprising an agent that blocks the interaction between CD47 and SIRPα for treating gastric or gastroesphageal junction cancel” (ALX Oncology Inc., priority 2019, dated 2026)

Assays:
[1] = cited from earlier work
[2] = system: BCL-XL-dependent cells, such as platelets; conditions: cited from earlier work
BCL-XL = BCL-XL (Homo sapiens, UniProt Q07817); conditions: selectivity profile; cited from earlier work
MCL-1 = MCL-1 (Homo sapiens, UniProt Q07820); conditions: selectivity profile; cited from earlier work
Sequence of MCL-1 (Q07820 whole entry, species assumed): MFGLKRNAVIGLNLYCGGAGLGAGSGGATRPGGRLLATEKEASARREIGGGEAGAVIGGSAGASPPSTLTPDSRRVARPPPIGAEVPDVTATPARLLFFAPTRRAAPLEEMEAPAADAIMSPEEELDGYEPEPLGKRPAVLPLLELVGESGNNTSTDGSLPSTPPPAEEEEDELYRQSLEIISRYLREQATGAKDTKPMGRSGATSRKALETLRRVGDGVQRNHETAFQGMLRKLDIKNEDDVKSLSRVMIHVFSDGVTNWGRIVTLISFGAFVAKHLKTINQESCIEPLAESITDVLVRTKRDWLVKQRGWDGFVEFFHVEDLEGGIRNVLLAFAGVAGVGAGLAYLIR

BFL-1 (BCL2A1/A1) = biological target: T1, BFL-1 (BCL2A1/A1) (Homo sapiens, UniProt Q16548); conditions: selectivity profile; cited from earlier work
T1 sequence (Q16548 1-175): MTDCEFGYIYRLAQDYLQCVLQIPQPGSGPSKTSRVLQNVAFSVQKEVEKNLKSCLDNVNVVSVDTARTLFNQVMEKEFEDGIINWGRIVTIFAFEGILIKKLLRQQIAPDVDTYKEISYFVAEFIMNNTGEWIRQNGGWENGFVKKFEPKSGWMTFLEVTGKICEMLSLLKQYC

CT26 tumor cells = assay: CT26 syngeneic mouse colon carcinoma model; assay type: in vivo, BALB/c female mice
Protocol: The CT26 cells (see Wang et al. (1995) J. Immunol. 154:4685-4692) were injected into the right flank of BALB/c female mice at a concentration of 5×10^5 cells per mouse in RPMI 1640. Tumors were monitored until the average size of all tumors reached 65-70 mm^3. […] The two 30 mpk doses were given 10 days apart. […] Mice receiving both cisplatin and Drug were administered with cisplatin (IP) according to one of the regimens described above, and with Drug A as described above. In mice receiving combination treatment, Drug A was administered one day after cisplatin. Tumors were measured in two dimensions with calipers, and tumor volume was calculated as: length×width×width×0.5, where length was the larger of the two measurements.

HL60 cells = assay: In vitro phagocytosis of HL60 cells by human monocyte-derived macrophages; assay type: cell-based; conditions: 20 nM Drug A, 125 nM venetoclax; FIG. 5A
Protocol: CD14^+ monocytes were purified by negative selection using the Classical Monocytes Isolation Kit, human (Miltenyi Biotec) and LS columns (Miltenyi Biotec) according to the manufacturer's protocol. CD14^+ monocytes were seeded into 150 mm tissue culture dishes (Corning) at 6 million cells per dish in 25 mL medium comprised of RPMI complete media, supplemented with 50 ng/mL M-CSF (Miltenyi Biotec), 10% human FBS serum (Thermo Fisher Scientific), 1% penicillin/streptomycin, and 1% GlutaMAX. Cells were cultured for seven to eleven days.
HL60 and OCI-AML3 cells were washed once in PBS and labeled with the Celltrace CFSE Cell Proliferation kit (Thermo Fisher Scientific) in suspension with 300 nM CFSE (carboxyfluorescein succinimidyl ester) according to the manufacturer's instructions and resuspended in RPMI complete media. […] Prior to incubation with macrophages, cells were resuspended in RPMI. Macrophages were detached from culture plates by washing once with PBS and incubation in TrypLE Select for 20 minutes at 37° C. Cells were removed with a cell scraper (Corning), washed in PBS, and resuspended in RPMI. […]
Briefly HL60 cells and OCI-AML3 cells (i.e., “target cells”) were labeled with CFSE (carboxyfluorescein succinimidyl ester) and treated with venetoclax for 48 hours. […] Macrophage cells were pelleted, stained, and analyzed via flow cytometry. […]

RS4;11 leukemia cells = assay: RS4;11 xenograft model (acute leukemia); assay type: in vivo, NOD-SCID female mice
Protocol: The RS4;11 cells (described in Stong et al. (1985) Blood. 65(1): 21-31) was injected into the right flank of NOD-SCID female mice at a concentration of 5×10^6 cells per mouse using a 1:1 matrigel (Corning) and RPMI 1640 ratio. Tumors were monitored until the average size of all tumors reached 190 mm^3. […] The formulation for Venetoclax was a ratio of DMSO:ethanol:Cremophor EL:dextrose 5% in water (D5W) was […], by volume. Venetoclax-treated mice were dosed with 250 μg of Venetoclax by oral gavage 2 times total, 3 days apart. Drug A-treated mice were dosed IP at 10 mg/kg, 4 times total, 3-4 days apart. […] Tumors were measured in two dimensions with calipers, and tumor volume was calculated as: length×width×width×0.5, where length was the larger of the two measurements.

Sequence of BCL-XL (Q07817 whole entry, species assumed): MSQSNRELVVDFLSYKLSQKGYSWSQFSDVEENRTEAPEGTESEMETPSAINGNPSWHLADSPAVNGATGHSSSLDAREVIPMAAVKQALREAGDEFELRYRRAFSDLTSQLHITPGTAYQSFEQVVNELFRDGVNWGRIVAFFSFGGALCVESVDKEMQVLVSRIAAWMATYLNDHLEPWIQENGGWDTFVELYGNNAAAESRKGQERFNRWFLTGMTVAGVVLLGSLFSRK

Q: Which aqueous solubility [1] does the source give for `[NH2][Pt]1([NH2])[O]C(=O)C2(CCC2)C(=O)[O]1` [Carboplatin, platinum, diammine [1,1cyclobutane-dicarboxylato(2-)-0,0]-, (SP-4-2)] here?
A: water-soluble

Q: What does the source list for `O=C(c1cc(-c2cc3c(cc2C(=O)N2Cc4ccccc4C[C@H]2CN2CCOCC2)OCO3)n2c1CCCC2)N(c1ccccc1)c1ccc(O)cc1` [Drug S55746, (S)—N-(4-hydroxyphenyl)-3-(6-(3-(morpholinomethyl)-1,2,3,4-tetrahydroisoquinoline-2-carbonyl)benzo[d][1,3]dioxol-5-yl)-N-phenyl-5,6,7,8-tetrahydroindolizine-1-carboxamide]?
A: cytotoxic activity [2]: no cytotoxic activity; affinity for BCL-XL (BCL-XL): poor affinity; binding to MCL-1 (MCL-1): no significant binding; binding to BFL-1 (BCL2A1/A1) (BFL-1 (BCL2A1/A1)): no significant binding

Q: With `N.N.[Cl][Pt][Cl]` [cisplatin, dichloroplatinum diammoniate] as the compound, how does the “mice with a tumor volume<500 mm^3” value (CT26 tumor cells; cisplatin two 5 mpk doses regimen) read?
A: 10%

Q: What about the tumor growth (CT26 tumor cells; day 20, cisplatin two 5 mpk doses 10 days apart, Drug A two 30 mpk doses, FIG. 2A) of the same compound?
A: inhibited somewhat

Q: What does the source list for `CC1(C)CCC(CN2CCN(c3ccc(C(=O)NS(=O)(=O)c4ccc(NCC5CCOCC5)c([N+](=O)[O-])c4)c(Oc4cnc5[nH]ccc5c4)c3)CC2)=C(c2ccc(Cl)cc2)C1` [venetoclax, 4-(4-{[2-(4-chlorophenyl)-4,4dimethylcyclohex-1-en-1-yl]methyl}piperazin-1-yl)-N-({3-nitro-4-[(tetrahydro-2H-pyran-4ylmethyl)amino]phenyl}sulfonyl)-2-(1H-pyrrolo[2,3-b]pyridin-5-yloxy)benzamide]?
A: macrophage-mediated phagocytosis of HL60 cells (HL60 cells): stimulated macrophage-mediated phagocytosis of HL60 cells; average tumor volume (RS4;11 leukemia cells; Day 65, re-treated mice (n=5/group)): about 1685 mm^3; tumor-free (TF) mice (RS4;11 leukemia cells; day 41): 1 out of 10; tumor growth (tumor volume) (RS4;11 leukemia cells; venetoclax 250 μg oral gavage 2 times, Drug A 10 mg/kg IP 4 times, FIG. 1A): inhibited tumor growth; aqueous solubility [1]: very low aqueous solubility
